# Active and inactive are the calls of the source. For most assays here, no stated cut-off is given here; in the data, actives have a measured Kd and inactives only a lower limit.
# Experiments:
# [1] = target: Chromodomain-helicase-DNA-binding protein 4 (Homo sapiens, UniProt Q14839)
# [2] = target: T1, Receptor-type tyrosine-protein kinase FLT3 (Homo sapiens, UniProt P36888)
# T1 sequence (P36888 whole entry): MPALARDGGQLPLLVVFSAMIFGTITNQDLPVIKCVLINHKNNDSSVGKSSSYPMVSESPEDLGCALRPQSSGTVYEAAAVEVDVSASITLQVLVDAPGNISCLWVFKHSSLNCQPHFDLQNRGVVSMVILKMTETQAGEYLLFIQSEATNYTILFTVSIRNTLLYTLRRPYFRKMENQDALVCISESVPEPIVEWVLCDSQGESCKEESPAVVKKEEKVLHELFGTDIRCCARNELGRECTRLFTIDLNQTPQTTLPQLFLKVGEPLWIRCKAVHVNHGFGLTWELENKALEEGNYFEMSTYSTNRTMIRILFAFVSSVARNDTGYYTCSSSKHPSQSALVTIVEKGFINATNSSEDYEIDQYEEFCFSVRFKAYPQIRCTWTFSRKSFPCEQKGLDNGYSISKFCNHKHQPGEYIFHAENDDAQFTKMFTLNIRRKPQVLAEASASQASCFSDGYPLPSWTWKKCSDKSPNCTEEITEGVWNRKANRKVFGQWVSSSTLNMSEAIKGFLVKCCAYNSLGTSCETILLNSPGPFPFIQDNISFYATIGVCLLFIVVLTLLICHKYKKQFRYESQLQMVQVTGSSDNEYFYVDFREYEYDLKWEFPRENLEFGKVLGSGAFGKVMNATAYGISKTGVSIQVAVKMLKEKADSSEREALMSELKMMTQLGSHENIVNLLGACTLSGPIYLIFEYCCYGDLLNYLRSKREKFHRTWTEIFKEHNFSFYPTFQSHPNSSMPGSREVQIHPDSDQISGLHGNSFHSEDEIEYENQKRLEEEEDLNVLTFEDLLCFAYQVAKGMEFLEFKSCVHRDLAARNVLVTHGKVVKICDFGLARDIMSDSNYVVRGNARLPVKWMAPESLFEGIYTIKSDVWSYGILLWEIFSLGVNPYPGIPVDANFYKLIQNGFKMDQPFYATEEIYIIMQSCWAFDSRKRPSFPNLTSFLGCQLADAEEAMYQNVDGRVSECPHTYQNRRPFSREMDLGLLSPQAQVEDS
# [3] = target: NADH dehydrogenase [ubiquinone] 1 alpha subcomplex subunit 13 (Homo sapiens, UniProt Q9P0J0)
# [4] = target: Serine/threonine-protein kinase N1 (Homo sapiens, UniProt Q16512)
# [5] = target: cAMP-dependent protein kinase catalytic subunit beta (Homo sapiens, UniProt P22694)
# [6] = target: T2, Serine/threonine-protein kinase D2 (Homo sapiens, UniProt Q9BZL6)
# T2 sequence (Q9BZL6 whole entry): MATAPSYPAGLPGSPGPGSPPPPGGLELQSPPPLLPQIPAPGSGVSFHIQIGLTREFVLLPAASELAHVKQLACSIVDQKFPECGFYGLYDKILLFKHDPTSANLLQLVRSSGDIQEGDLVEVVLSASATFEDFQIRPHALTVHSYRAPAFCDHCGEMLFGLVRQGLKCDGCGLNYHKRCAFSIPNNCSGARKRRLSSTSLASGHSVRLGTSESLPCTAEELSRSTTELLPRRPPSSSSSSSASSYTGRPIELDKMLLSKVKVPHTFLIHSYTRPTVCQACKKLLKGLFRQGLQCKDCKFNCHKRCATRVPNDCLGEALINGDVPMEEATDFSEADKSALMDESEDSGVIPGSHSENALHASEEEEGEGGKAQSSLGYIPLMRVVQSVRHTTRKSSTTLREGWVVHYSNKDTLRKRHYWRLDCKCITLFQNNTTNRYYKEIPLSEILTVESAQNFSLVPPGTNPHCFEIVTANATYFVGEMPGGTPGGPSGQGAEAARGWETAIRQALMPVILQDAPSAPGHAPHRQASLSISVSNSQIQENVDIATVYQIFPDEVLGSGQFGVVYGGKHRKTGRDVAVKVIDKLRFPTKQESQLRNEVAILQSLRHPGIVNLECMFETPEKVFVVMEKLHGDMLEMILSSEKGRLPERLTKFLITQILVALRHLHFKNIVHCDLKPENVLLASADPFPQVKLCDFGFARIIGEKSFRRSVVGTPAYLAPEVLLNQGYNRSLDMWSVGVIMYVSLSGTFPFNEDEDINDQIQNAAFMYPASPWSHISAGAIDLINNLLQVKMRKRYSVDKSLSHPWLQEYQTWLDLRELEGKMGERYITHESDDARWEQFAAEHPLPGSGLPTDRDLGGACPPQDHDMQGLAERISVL
# [7] = target: T3, Serine/threonine-protein kinase 3 (Homo sapiens, UniProt Q13188)
# T3 sequence (Q13188 whole entry): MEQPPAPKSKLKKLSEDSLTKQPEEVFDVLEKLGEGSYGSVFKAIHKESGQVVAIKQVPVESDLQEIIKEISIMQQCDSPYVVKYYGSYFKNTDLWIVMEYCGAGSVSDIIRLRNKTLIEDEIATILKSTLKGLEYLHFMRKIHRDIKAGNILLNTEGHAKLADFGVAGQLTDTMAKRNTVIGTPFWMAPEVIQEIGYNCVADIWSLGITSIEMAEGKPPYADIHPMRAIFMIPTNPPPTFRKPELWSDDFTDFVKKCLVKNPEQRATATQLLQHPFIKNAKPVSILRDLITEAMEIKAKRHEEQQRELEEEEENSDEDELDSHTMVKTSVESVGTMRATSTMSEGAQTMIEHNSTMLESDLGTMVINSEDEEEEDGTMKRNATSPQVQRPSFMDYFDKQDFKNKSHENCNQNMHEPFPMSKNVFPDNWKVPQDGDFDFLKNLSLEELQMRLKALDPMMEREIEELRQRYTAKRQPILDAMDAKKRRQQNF
# [8] = target: Non-receptor tyrosine-protein kinase TYK2 (Homo sapiens, UniProt P29597)
# Chain of Non-receptor tyrosine-protein kinase TYK2 (P29597 whole entry): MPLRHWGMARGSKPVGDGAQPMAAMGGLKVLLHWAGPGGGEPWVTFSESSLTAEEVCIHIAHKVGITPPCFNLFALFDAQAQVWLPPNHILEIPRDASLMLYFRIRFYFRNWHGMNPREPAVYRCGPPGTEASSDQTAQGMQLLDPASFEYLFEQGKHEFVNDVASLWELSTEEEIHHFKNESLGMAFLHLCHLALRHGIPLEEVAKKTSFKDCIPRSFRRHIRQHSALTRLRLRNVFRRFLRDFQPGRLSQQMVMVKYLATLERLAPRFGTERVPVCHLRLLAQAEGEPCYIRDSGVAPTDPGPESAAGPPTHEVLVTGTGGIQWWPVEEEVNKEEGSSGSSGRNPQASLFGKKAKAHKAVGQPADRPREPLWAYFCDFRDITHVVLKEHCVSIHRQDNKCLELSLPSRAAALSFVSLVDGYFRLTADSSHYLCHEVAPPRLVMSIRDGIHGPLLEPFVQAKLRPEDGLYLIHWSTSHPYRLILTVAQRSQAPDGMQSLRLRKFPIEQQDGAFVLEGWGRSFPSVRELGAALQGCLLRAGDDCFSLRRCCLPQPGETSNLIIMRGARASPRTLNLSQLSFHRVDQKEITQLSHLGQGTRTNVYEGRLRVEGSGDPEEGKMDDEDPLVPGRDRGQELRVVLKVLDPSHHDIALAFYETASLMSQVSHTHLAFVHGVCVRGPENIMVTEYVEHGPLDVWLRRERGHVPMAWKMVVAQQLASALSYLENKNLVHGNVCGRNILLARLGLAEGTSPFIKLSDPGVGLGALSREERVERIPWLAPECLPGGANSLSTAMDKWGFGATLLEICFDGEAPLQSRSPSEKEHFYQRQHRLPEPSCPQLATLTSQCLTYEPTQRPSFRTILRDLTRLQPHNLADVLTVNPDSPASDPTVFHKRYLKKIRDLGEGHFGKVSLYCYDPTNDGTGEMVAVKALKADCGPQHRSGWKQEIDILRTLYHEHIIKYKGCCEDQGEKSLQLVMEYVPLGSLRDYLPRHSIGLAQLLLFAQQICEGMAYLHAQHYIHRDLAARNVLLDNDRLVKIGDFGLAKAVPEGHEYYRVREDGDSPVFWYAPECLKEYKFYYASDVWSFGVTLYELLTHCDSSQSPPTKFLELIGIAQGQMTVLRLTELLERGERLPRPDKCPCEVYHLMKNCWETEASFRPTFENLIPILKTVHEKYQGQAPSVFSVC
# Chain of NADH dehydrogenase [ubiquinone] 1 alpha subcomplex subunit 13 (Q9P0J0 whole entry, one chain of several): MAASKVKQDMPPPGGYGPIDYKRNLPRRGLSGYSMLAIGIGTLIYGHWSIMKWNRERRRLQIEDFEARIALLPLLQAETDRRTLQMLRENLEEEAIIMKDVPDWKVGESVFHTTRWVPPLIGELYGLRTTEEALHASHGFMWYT
# Chain of Serine/threonine-protein kinase N1 (Q16512 whole entry): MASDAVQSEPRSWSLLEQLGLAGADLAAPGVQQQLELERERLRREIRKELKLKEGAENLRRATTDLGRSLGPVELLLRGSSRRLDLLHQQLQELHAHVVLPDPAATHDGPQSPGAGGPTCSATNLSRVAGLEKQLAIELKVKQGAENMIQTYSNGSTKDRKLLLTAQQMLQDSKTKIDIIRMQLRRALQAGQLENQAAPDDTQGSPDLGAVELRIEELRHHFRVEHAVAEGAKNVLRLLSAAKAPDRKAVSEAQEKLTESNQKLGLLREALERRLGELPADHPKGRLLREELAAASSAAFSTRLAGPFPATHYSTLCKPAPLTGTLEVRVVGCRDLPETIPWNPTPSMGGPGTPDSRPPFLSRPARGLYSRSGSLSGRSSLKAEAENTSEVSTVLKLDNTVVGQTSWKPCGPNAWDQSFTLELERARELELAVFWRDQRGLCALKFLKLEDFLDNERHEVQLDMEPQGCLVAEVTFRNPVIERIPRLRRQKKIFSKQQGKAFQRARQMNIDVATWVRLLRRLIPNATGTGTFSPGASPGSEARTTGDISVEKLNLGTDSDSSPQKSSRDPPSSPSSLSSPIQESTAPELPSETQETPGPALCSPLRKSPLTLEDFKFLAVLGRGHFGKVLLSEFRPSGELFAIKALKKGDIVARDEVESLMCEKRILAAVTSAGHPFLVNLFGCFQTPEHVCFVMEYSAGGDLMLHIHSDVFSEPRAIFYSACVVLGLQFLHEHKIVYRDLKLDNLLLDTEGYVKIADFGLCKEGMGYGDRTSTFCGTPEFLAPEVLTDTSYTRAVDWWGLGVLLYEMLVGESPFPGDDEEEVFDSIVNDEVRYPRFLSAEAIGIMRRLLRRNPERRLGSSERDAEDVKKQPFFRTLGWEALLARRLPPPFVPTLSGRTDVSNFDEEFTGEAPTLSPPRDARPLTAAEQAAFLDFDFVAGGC
# Chain of Chromodomain-helicase-DNA-binding protein 4 (Q14839 whole entry): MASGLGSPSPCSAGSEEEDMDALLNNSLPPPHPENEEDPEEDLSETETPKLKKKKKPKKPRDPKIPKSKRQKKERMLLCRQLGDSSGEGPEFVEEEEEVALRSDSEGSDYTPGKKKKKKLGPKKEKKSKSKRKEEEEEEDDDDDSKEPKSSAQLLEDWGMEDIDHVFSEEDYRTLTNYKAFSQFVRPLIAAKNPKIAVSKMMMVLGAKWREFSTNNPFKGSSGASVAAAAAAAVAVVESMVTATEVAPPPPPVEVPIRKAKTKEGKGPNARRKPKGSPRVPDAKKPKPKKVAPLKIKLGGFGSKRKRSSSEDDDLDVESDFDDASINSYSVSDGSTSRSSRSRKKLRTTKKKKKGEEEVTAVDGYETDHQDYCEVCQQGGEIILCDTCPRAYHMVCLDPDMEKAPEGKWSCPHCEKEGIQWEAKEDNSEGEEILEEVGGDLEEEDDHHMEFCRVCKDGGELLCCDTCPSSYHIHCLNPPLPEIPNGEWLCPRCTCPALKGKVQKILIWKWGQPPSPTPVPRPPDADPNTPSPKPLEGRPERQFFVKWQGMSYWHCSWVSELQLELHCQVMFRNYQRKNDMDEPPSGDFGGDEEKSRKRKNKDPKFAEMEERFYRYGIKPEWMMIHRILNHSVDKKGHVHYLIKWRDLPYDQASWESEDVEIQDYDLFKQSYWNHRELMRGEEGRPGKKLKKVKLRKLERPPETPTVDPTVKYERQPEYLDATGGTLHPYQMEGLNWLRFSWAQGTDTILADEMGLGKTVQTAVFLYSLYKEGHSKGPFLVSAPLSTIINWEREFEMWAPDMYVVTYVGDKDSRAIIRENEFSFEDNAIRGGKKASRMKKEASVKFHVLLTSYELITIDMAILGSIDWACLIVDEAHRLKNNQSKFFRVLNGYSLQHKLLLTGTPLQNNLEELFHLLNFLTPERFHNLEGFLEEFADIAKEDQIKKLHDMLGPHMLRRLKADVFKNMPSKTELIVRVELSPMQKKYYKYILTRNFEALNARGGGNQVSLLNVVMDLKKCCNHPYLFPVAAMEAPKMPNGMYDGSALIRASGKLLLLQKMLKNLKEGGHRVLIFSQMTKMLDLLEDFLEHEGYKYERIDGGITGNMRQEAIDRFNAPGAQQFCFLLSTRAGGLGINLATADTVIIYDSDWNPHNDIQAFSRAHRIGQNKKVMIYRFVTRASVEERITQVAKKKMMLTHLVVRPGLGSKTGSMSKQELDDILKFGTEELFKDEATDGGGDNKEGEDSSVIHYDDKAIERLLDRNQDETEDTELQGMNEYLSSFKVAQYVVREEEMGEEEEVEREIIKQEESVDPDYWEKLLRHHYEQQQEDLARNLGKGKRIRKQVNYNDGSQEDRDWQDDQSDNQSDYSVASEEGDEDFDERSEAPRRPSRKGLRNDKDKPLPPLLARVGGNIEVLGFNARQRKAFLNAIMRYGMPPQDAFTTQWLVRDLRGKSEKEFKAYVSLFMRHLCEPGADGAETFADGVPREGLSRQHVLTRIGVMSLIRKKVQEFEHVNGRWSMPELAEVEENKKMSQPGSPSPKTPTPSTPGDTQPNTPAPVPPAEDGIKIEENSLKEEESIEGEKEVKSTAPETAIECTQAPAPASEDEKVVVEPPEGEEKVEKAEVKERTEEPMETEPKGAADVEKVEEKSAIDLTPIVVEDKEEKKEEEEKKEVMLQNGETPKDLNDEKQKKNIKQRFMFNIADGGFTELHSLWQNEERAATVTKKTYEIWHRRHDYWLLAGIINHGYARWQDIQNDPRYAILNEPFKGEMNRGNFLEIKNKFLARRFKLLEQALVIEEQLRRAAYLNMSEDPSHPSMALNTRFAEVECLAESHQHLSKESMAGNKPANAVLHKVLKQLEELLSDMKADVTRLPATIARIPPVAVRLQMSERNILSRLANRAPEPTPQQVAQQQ
Kd [1],Kd [2],Kd [3],Kd [4],Kd [5],Kd [6],Kd [7],Kd [8],SMILES
> 30 µM (inactive),> 30 µM (inactive),> 30 µM (inactive),> 30 µM (inactive),> 30 µM (inactive),> 30 µM (inactive),2.27 µM (active),> 30 µM (inactive),O=C(O)[C@]1(Cc2cccc(Nc3nccs3)n2)CC[C@@H](Oc2cccc(Cl)c2F)CC1 [MK-5108]
> 30 µM (inactive),,> 30 µM (inactive),> 30 µM (inactive),> 30 µM (inactive),> 30 µM (inactive),> 30 µM (inactive),> 30 µM (inactive),OCCn1cc(-c2cnc3nnn(Cc4ccc5ncccc5c4)c3n2)cn1 [PF-04217903]
> 30 µM (inactive),,> 30 µM (inactive),> 30 µM (inactive),> 30 µM (inactive),,,,Cc1cc(Nc2cc(N3CCN(C)CC3)nc(/C=C/c3ccccc3)n2)n[nH]1 [ENMD-2076]
,> 30 µM (inactive),> 30 µM (inactive),> 30 µM (inactive),> 30 µM (inactive),> 30 µM (inactive),> 30 µM (inactive),> 30 µM (inactive),CNC(=O)c1ccc(C)c(-n2c(C)cc(OCc3ccc(F)cc3F)c(Br)c2=O)c1 [PH-797804]
> 30 µM (inactive),,> 30 µM (inactive),,,,,,CCn1c(-c2nonc2N)nc2c(C#CC(C)(C)O)ncc(OC[C@H]3CCCNC3)c21 [GSK-690693]
> 30 µM (inactive),,> 30 µM (inactive),13.2 µM (active),,,,,Cc1nc(N)sc1-c1ccnc(Nc2ccc(N3CCOCC3)cc2)n1 [CYC-116]
,> 30 µM (inactive),> 30 µM (inactive),> 30 µM (inactive),> 30 µM (inactive),> 30 µM (inactive),> 30 µM (inactive),> 30 µM (inactive),C[C@@H](Nc1cc(F)cc(F)c1)c1cc(C(=O)N(C)C)cc2c(=O)cc(N3CCOCC3)oc12 [AZD-8186]

# More lines, now with the values behind:
SMILES,Kd [1],Kd [2],Kd [3],Kd [4],Kd [5],Kd [6],Kd [7],Kd [8]
CCc1cnn2c(NCc3ccc[n+]([O-])c3)cc(N3CCCC[C@H]3CCO)nc12 [DINACICLIB],0.003 µM,> 30 µM (inactive),> 30 µM (inactive),> 30 µM (inactive),> 30 µM (inactive),> 30 µM (inactive),> 30 µM (inactive),> 30 µM (inactive)
Cn1ncc(Cl)c1-c1cc(C(=O)N[C@H](CN)Cc2cccc(F)c2)sc1Cl [AFURESERTIB],> 30 µM (inactive),> 30 µM (inactive),> 30 µM (inactive),0.88 µM (active),0.211 µM (active),3.91 µM (active),> 30 µM (inactive),> 30 µM (inactive)
CC[C@H](Nc1ncnc2[nH]cnc12)c1nc2cccc(F)c2c(=O)n1-c1ccccc1 [IDELALISIB],> 30 µM (inactive),> 30 µM (inactive),> 30 µM (inactive),> 30 µM (inactive),> 30 µM (inactive),> 30 µM (inactive),> 30 µM (inactive),> 30 µM (inactive)
CN1CCN(c2ccc3nc(-c4c(N)c5c(F)cccc5[nH]c4=O)[nH]c3c2)CC1 [DOVITINIB],> 30 µM (inactive),,> 30 µM (inactive),,,,,
CNC(=O)c1cc(Oc2ccc(NC(=O)Nc3ccc(Cl)c(C(F)(F)F)c3)c(F)c2)ccn1 [REGORAFENIB],> 30 µM (inactive),,> 30 µM (inactive),> 30 µM (inactive),> 30 µM (inactive),> 30 µM (inactive),> 30 µM (inactive),> 30 µM (inactive)
O=C(Nc1cccc(Cl)c1)Nc1ncc(CCNc2ncnc3ccsc23)s1 [SNS-314],> 30 µM (inactive),,> 30 µM (inactive),> 30 µM (inactive),> 30 µM (inactive),,,
C1=C/COCc2cc(ccc2OCCN2CCCC2)Nc2nccc(n2)-c2cccc(c2)COC/1 [PACRITINIB],> 30 µM (inactive),,> 30 µM (inactive),> 30 µM (inactive),> 30 µM (inactive),> 30 µM (inactive),> 30 µM (inactive),
COc1cc2nccc(Oc3ccc(NC(=O)Nc4cc(C)on4)c(Cl)c3)c2cc1OC [TIVOZANIB],> 30 µM (inactive),,> 30 µM (inactive),> 30 µM (inactive),> 30 µM (inactive),> 30 µM (inactive),> 30 µM (inactive),> 30 µM (inactive)
CNC(=O)c1ccc(-c2cnc3ncc(Cc4ccc5ncccc5c4)n3n2)cc1F [CAPMATINIB],,> 30 µM (inactive),,> 30 µM (inactive),> 30 µM (inactive),> 30 µM (inactive),> 30 µM (inactive),> 30 µM (inactive)
C[C@@H](c1ccc2nccn2c1)n1nnc2ncc(-c3cnn(C)c3)nc21 [SAVOLITINIB],,> 30 µM (inactive),,> 30 µM (inactive),> 30 µM (inactive),> 30 µM (inactive),> 30 µM (inactive),> 30 µM (inactive)
Cc1cn(-c2cc(NC(=O)c3ccc(C)c(Nc4nccc(-c5cccnc5)n4)c3)cc(C(F)(F)F)c2)cn1 [NILOTINIB],> 30 µM (inactive),,> 30 µM (inactive),,,,,
Nc1nc(N)c2nc(-c3cccc(O)c3)c(-c3cccc(O)c3)nc2n1 [TG100-115],> 30 µM (inactive),,> 30 µM (inactive),,,,,
CN1CCC(COc2cnc(-c3cccc(Cn4nc(-c5cccc(C#N)c5)ccc4=O)c3)nc2)CC1 [TEPOTINIB],> 30 µM (inactive),> 30 µM (inactive),> 30 µM (inactive),> 30 µM (inactive),> 30 µM (inactive),> 30 µM (inactive),> 30 µM (inactive),
CNS(=O)(=O)Nc1nccc(Cc2c(C)c3ccc(Oc4ncccn4)cc3oc2=O)c1F [AVUTOMETINIB],> 30 µM (inactive),> 30 µM (inactive),,> 30 µM (inactive),> 30 µM (inactive),> 30 µM (inactive),> 30 µM (inactive),> 30 µM (inactive)
C=CC(=O)N1CCC(Oc2cc3c(Nc4ccc(Cl)c(Cl)c4F)ncnc3cc2OC)CC1 [POZIOTINIB],> 30 µM (inactive),> 30 µM (inactive),,> 30 µM (inactive),> 30 µM (inactive),> 30 µM (inactive),> 30 µM (inactive),> 30 µM (inactive)

# Reference: ChEMBL document CHEMBL3991601, “The target landscape of clinical kinase drugs” (Science, 2017)
